Laboratory results as given in patent publication US6107064A, “Process for producing xanthine derivatives with bacteria and fungi” (Kyowa Hakko Kogyo Co., Ltd., priority 1994, dated 2000).
One block for each compound: values may come before it.

Legend:
[1] = tested on: Wistar rats, glycerol-induced renal insufficiency; assay: Renal-Protecting Activity (Glycerol-Induced Renal Insufficiency Model); assay type: in vivo, rat (Wistar, male); settings: for effect on increases in serum creatinine and serum urea-nitrogen: 10 mg/kg, ip
Protocol: Renal insufficiency is the condition that homeostasis of a body fluid is unable to be maintained by disorder of renal function. It is known that subcutaneous or intramuscular administration of glycerol to rats induces acute renal insufficiency characterized by renal tubular disturbance [Can. J. Physiol.
Male Wistar rats were fisted from both food and water for 18 hours. A test compound was intraperitoneally administered to the rats (dose; 0.1 ml/100 g). After 30 minutes, the rats were anesthetized with ether and the back skin was picked up and 0.8 ml/100 […] of 50% glycerol was subcutaneously administered. Twenty four hours after the glycerol injection, the rats were anesthetized with ether and 5 ml of blood was collected from the descending aorta. A sample of the collected blood was allowed to stand for 30 minutes or longer and then centrifuged at 3,000 rpm for 10 minutes to obtain the serum. Creatinine in the serum sample and urea nitrogen in the serum were determined with an autoanalyzer (AU510, Olympus Optical Co., Ltd.) using Olympus AU500/550 exclusive reagent "Katayama" in both of creatinine test (Jaffe' method) and urea-nitrogen test (enzyme method).

adenosine A1 receptor = molecular target: T1, adenosine A1 receptor (Rattus norvegicus, UniProt P25099); assay: Adenosine A1 Receptor Binding Test (3H-CHA binding, corpus striatum); settings: 3H-CHA 1.1 nM, 25° C., 90 minutes
T1 construct: from tissue; host or cells: rat corpus striatum, washed membrane suspension
T1 sequence (P25099 1-326): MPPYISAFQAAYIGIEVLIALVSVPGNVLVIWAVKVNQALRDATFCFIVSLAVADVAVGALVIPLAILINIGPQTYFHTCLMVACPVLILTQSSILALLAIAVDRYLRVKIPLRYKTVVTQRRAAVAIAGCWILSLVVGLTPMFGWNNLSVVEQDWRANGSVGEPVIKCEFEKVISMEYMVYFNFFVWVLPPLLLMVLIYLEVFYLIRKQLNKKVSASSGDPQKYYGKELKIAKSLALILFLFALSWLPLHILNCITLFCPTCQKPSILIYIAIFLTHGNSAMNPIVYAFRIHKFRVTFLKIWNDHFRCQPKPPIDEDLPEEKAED
Protocol: The test was conducted according to the method of Bruns et al. [Mol. Pharmacol., 29, 331 (1986)] with slight modification.
Corpus striatum of a rat was suspended in ice-cooled 50 mM Tris hydroxymethyl aminomethane hydrochloride (Tris HCl) buffer (pH 7.7) by using Polytron homogenizer (manufactured by Kinematicas Co.) The suspension was centrifuged (50,000×g, 10 minutes), and the precipitate was suspended again in the same amount of 50 mM Tris HCl buffer. The suspension was centrifuged under the same conditions, and the final precipitate was suspended once again in 50 mM Tris HCl buffer to give a tissue concentration of 100 mg (wet weight)/ml. The tissue suspension was allowed to stand at 37° C. for 30 minutes in the presence of 0.02 unit/mg tissue of adenosine deaminase (manufactured by Sigma Co.) The tissue suspension was centrifuged (50,000×g, 10 minutes) and to the obtained precipitates was added 50 mM Tris HCl buffer to give a tissue concentration of 10 mg (wet weight)/ml.
To 1 ml of the tissue suspension thus prepared were added 50 μl of cyclohexyladenosine labeled with tritium (^3 H-CHA: 27 Ci/mmol, manufactured by New England Nuclear) (final concentration: 1.1 nM) and 50 μl of a test compound. The resulting mixture was allowed to stand at 25° C. for 90 minutes and then rapidly filtered by suction through a glass fiber filter (GF/C, manufactured by Whatman Co.) The filter was immediately washed three times with 5 ml each of ice-cooled 50 mM Tris HCl buffer, and transferred to a vial, and a scintillator (EX-H, manufactured by Wako Pure Chemical Industries, Ltd.) was added thereto. The radioactivity on the filter was determined with a liquid scintillation counter (manufactured by Packard Instrument Co.)
The inhibition rate (Ki value) of the test compound against the binding of A1 receptors (^3 H-CHA binding) was calculated by the equation of Cheng-Prusoff. [formula] [Notes]1. "B" means the amount of radioactivity of ^3 H-CHA bound in the presence of a test compound at various concentrations.
2. "T" means the amount of radioactivity of ^3 H-CHA bound in the absence of a test compound.
3. "IN" means the amount of radioactivity of ^3 H-CHA bound in the presence of 10 μM N^6 -(L-2-phenylisopropyl)-adenosine (Sigma Co.)

Wistar rats = assay: Diuretic Effect; assay type: in vivo, rat (Wistar, male); settings: for Increase in amount of K+ excreted / Increase in amount of Na+ excreted / Increase in amount of urine: control 0
Protocol: The experiment was carried out by using Wistar rats (male; 150 to 300 g). The rats were starved for 18 hours prior to the administration of a test compound (n=4 to 5). After a test compound dissolved in 0.4% methanol, 1% dimethylsulfoxde, and 0.01N sodium hydroxide/physiological saline was administered intravenously to the rat, the physiological saline (25 ml/kg) was orally administered thereto. Alternatively, a test compound dissolved in the physiological saline (25 ml/kg) was orally administered to the rats. Urine was collected from the rats during 4 hours after the oral administration, and urine volume was measured by a graduated measuring cylinder, and the electrolytes (Na^+ and K^+) in the urine were determined by flame photometer (775A, manufactured by Hitachi, Ltd.) The test results are shown in Tables 3 and 4.

[2] = 0.01 mg/kg po, 4 hours, control 1.00
[3] = 1.6 mg/kg po, 4 hours, control 1.00
[4] = 1 mg/kg ip, 24 hours after glycerol, control 4.57 ± 0.31, ***p < 0.001 (Student's t test)
[5] = 1 mg/kg ip, 24 hours after glycerol, control 164.9 ± 10.3, ***p < 0.001 (Student's t test)
[6] = 0.1 mg/kg po, 4 hours, control 1.00

SMILES: NS(=O)(=O)c1cc(C(=O)O)c(NCc2ccco2)cc1Cl [furosemide, reference compound]
effect on increases in serum creatinine and serum urea-nitrogen [1]: a tendancy of deterioration

SMILES: Cn1c(=O)c2[nH]cnc2n(C)c1=O [aminophylline, reference compound]
effect on increases in serum creatinine and serum urea-nitrogen [1]: only a weak inhibitory tendancy

SMILES: CCCn1c(=O)c2[nH]c([C@]34C[C@@H]5[C@@H](O)[C@H](C3)[C@H]3[C@@H]5[C@H]34)nc2n(CCC)c1=O [Compound 5, 8-(Trans-9-hydroxy-3-tetracyclo[3.3.1.0^3,7 .0^6,8]-nonyl)-1,3-dipropylxanthine]
Ki (adenosine A1 receptor): 0.31 nM
Increase in amount of K+ excreted (Wistar rats; 0.0025 mg/kg po, 4 hours): 8%
Increase in amount of Na+ excreted (Wistar rats; 0.0025 mg/kg po, 4 hours): 68%
Increase in amount of urine (Wistar rats; 0.0025 mg/kg po, 4 hours): 77%
Na+/K+ (Wistar rats; 0.0025 mg/kg po, 4 hours, control 1.00): 1.56
Increase in amount of K+ excreted (Wistar rats; 0.1 mg/kg po, 4 hours): 23%
Increase in amount of Na+ excreted (Wistar rats; 0.1 mg/kg po, 4 hours): 277%
Increase in amount of urine (Wistar rats; 0.1 mg/kg po, 4 hours): 256%
Na+/K+ (Wistar rats; [6]): 3.07
Amount of creatinine in serum ([1]; 0.01 mg/kg ip, 24 hours after glycerol, control 3.90 ± 0.24, ***p < 0.001): 2.18 ± 0.11 mg/dL
Amount of urea-nitrogen in serum ([1]; 0.01 mg/kg ip, 24 hours after glycerol, control 124.9 ± 7.5, ***p < 0.001): 61.3 ± 6.1 mg/dL

Continued, in another order:

Ki (adenosine A1 receptor): 0.31 nM
SMILES: CCCn1c(=O)c2[nH]c([C@@]34C[C@H]5C[C@@H]3C[C@@H](C4)[C@H]5O)nc2n(CCC)c1=O [Compound 4, 8-(cis-9-hydroxy-3-tricyclo[3.3.1.0^3,7]nonyl)-1,3-dipropylxanthine]
Increase in amount of K+ excreted (Wistar rats; 0.01 mg/kg po, 4 hours): 43%
Increase in amount of Na+ excreted (Wistar rats; 0.01 mg/kg po, 4 hours): 167%
Increase in amount of urine (Wistar rats; 0.01 mg/kg po, 4 hours): 200%
Na+/K+ (Wistar rats; [2]): 1.86
Increase in amount of K+ excreted (Wistar rats; 1.6 mg/kg po, 4 hours): 35%
Increase in amount of Na+ excreted (Wistar rats; 1.6 mg/kg po, 4 hours): 180%
Increase in amount of urine (Wistar rats; 1.6 mg/kg po, 4 hours): 232%
Na+/K+ (Wistar rats; [3]): 2.07
Amount of creatinine in serum [1, 4]: 2.00 ± 0.17 mg/dL
Amount of urea-nitrogen in serum [1, 5]: 76.0 ± 8.8 mg/dL

Ki (adenosine A1 receptor): 0.23 nM
SMILES: CCCn1c(=O)c2[nH]c([C@@]34C[C@H]5C[C@@H]3C[C@@H](C4)[C@@H]5O)nc2n(CCC)c1=O [Compound 1, 8-(Trans-9-hydroxy-3-tricyclo[3.3.1.0^3,7]nonyl)-1,3-dipropylxanthine]
Amount of K+ excreted (Wistar rats; 3 μg/kg iv, n = 5, 4 hours, control 1.47 ± 0.31): 1.24 ± 0.10 mEq/kg
Na+/K+ (Wistar rats; 3 μg/kg iv, n = 5, 4 hours, control 1.52): 2.99
Amount of Na+ excreted (Wistar rats; 3 μg/kg iv, n = 5, 4 hours, control 2.23 ± 0.61, **p < 0.01 (Dunnett's test)): 3.71 ± 0.12 mEq/kg
Amount of urine (Wistar rats; 3 μg/kg iv, n = 5, 4 hours, control 14.5 ± 1.8, *p < 0.05 (Dunnett's test)): 26.4 mL/kg
Increase in amount of K+ excreted (Wistar rats; 0.01 mg/kg po, 4 hours): 11%
Increase in amount of Na+ excreted (Wistar rats; 0.01 mg/kg po, 4 hours): 139%
Increase in amount of urine (Wistar rats; 0.01 mg/kg po, 4 hours): 99%
Na+/K+ (Wistar rats; [2]): 2.16
Increase in amount of K+ excreted (Wistar rats; 0.1 mg/kg po, 4 hours): -9%
Increase in amount of Na+ excreted (Wistar rats; 0.1 mg/kg po, 4 hours): 148%
Increase in amount of urine (Wistar rats; 0.1 mg/kg po, 4 hours): 105%
Na+/K+ (Wistar rats; [6]): 2.72
Amount of creatinine in serum ([1]; 0.01 mg/kg ip, 24 hours after glycerol; control 4.35 ± 0.23; **^1) p < 0.01 (Dunnett's test)): 2.00 ± 0.21 mg/dL
Amount of urea-nitrogen in serum ([1]; 0.01 mg/kg ip, 24 hours after glycerol; control 139.7 ± 10.2; marked ***^1)): 69.9 ± 8.4 mg/dL
Amount of creatinine in serum ([1]; 0.1 mg/kg ip, 24 hours after glycerol; control 4.35 ± 0.23; **^1) p < 0.01 (Dunnett's test)): 2.32 ± 0.16 mg/dL
Amount of urea-nitrogen in serum ([1]; 0.1 mg/kg ip, 24 hours after glycerol; control 139.7 ± 10.2; **^1) p < 0.01 (Dunnett's test)): 64.4 ± 4.5 mg/dL

Ki (adenosine A1 receptor): 0.24 nM
SMILES: CCCn1c(=O)c2[nH]c([C@]34C[C@@H]5C[C@H](C3)[C@@H](O)[C@H]4C5)nc2n(CCC)c1=O (relative stereo) [Compound 2, 8-(trans-6-hydroxy-3-tricyclo[3.3.1.0^3,7]nonyl)-1,3-dipropylxanthine]
Increase in amount of K+ excreted (Wistar rats; 0.1 mg/kg po, 4 hours): 12%
Increase in amount of Na+ excreted (Wistar rats; 0.1 mg/kg po, 4 hours): 107%
Increase in amount of urine (Wistar rats; 0.1 mg/kg po, 4 hours): 134%
Na+/K+ (Wistar rats; [6]): 1.85
Increase in amount of K+ excreted (Wistar rats; 1.6 mg/kg po, 4 hours): 15%
Increase in amount of Na+ excreted (Wistar rats; 1.6 mg/kg po, 4 hours): 220%
Increase in amount of urine (Wistar rats; 1.6 mg/kg po, 4 hours): 297%
Na+/K+ (Wistar rats; [3]): 2.77
Amount of creatinine in serum [1, 4]: 1.88 ± 0.20 mg/dL
Amount of urea-nitrogen in serum [1, 5]: 58.0 ± 8.8 mg/dL

Ki (adenosine A1 receptor): 0.5 nM
SMILES: CCCn1c(=O)c2[nH]c(C34CC5CC3CC(O)(C5)C4)nc2n(CCC)c1=O (stereo not drawn) [Compound 3, 8-(1-hydroxy-3-tricyclo[3.3.1.0^3,7]nonyl)-1,3-dipropylxanthine]
Increase in amount of K+ excreted (Wistar rats; 0.025 mg/kg po, 4 hours): 32%
Increase in amount of Na+ excreted (Wistar rats; 0.025 mg/kg po, 4 hours): 238%
Increase in amount of urine (Wistar rats; 0.025 mg/kg po, 4 hours): 324%
Na+/K+ (Wistar rats; 0.025 mg/kg po, 4 hours, control 1.00): 2.55
Increase in amount of K+ excreted (Wistar rats; 0.1 mg/kg po, 4 hours): 18%
Increase in amount of Na+ excreted (Wistar rats; 0.1 mg/kg po, 4 hours): 272%
Increase in amount of urine (Wistar rats; 0.1 mg/kg po, 4 hours): 356%
Na+/K+ (Wistar rats; [6]): 3.15
Amount of creatinine in serum ([1]; 0.03 mg/kg ip, 24 hours after glycerol, control 3.57 ± 0.21, ***p < 0.001): 1.64 ± 0.17 mg/dL
Amount of urea-nitrogen in serum ([1]; 0.03 mg/kg ip, 24 hours after glycerol, control 149.7 ± 7.0, ***p < 0.001): 49.0 ± 6.9 mg/dL
